The source of these data is PubChem BioAssay (NCI).

Among the test systems are LOX IMVI melanoma; A498 renal; SN12C renal; SK-MEL-28 melanoma; IGROV1 ovarian; HCT-116 colon; COLO 205 colon; A549 NSCLC; HL-60(TB) leukemia; UO-31 renal.
Holding throughout (assay): inhibition of tumour cell growth, NCI panel, 48 h

Where “and” joins values, the source holds several entries; their conditions need not be identical. Identical values can stand only once.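 The compound was tested at five concentrations on cells cultured in 96-well plates, with a 48-hour exposure period. GI50 = concentration required for 50% inhibition of growth. TGI denotes the concentration required for complete inhibition of growth.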

For `CC1(COc2ccc3c(c2)ncn3-c2ccc3cccc(N4CCC(N)CC4)c3n2)COC1`, the GI50 in the experiment on LOX IMVI melanoma was 1400 nM and 1160 nM; with A498 renal, 5010 nM and 2030 nM; with SN12C renal, 945 nM and 1120 nM; with SK-MEL-28 melanoma, 3.5 µM and 3.37 µM; in the experiment on IGROV1 ovarian, 4070 nM and 2570 nM; in the experiment on HCT-116 colon, 894 nM and 1030 nM. Further, the GI50 is 1090 nM and 1020 nM in the experiment on COLO 205 colon; 1830 nM and 2390 nM with A549 NSCLC; 1820 nM and 1800 nM in the experiment with HL-60(TB) leukemia; 1780 nM and 822 nM with UO-31 renal. In addition, the TGI is 3.97 µM and > 10 µM in the experiment with LOX IMVI melanoma; 10.7 µM and 4.27 µM with A498 renal; 15.3 µM and > 10 µM in the experiment with SN12C renal; 9.34 µM and 8.36 µM in the experiment on SK-MEL-28 melanoma; 14 µM and > 10 µM in the experiment with IGROV1 ovarian; 5.35 µM and > 10 µM with HCT-116 colon. The TGI in the experiment on COLO 205 colon was 2.44 µM and 2.86 µM; in the experiment with A549 NSCLC, 4.45 µM and > 10 µM; in the experiment on HL-60(TB) leukemia, 4.54 µM and 4.49 µM; with UO-31 renal, 5.12 µM and 7.4 µM.

As to `Cc1ccc(/C=C/C(=O)CCN(C)C)cc1`, the TGI with LOX IMVI melanoma is 31.6 µM; in the experiment on A498 renal, more than 100 µM; in the experiment with SN12C renal, 32.1 µM; with SK-MEL-28 melanoma, 33.8 µM; in the experiment with IGROV1 ovarian, 37.1 µM; in the experiment on HCT-116 colon, 33.1 µM. Also, the TGI turned out to be 29.4 µM with COLO 205 colon, 38.4 µM with A549 NSCLC, 47 µM with HL-60(TB) leukemia and 33.8 µM in the experiment with UO-31 renal.

On to `O=C(Nc1ccccc1-c1nn(C(=S)Nc2ccccc2)c(=S)n(C(=S)Nc2ccccc2)c1=O)C(F)(F)F`, for which the TGI in the experiment on LOX IMVI melanoma is more than 66.1 µM; in the experiment on A498 renal it was more than 76.6 µM; with SN12C renal, more than 100 µM; in the experiment on SK-MEL-28 melanoma, more than 100 µM; in the experiment on IGROV1 ovarian it was more than 100 µM; in the experiment with HCT-116 colon it was more than 51.4 µM. The TGI with COLO 205 colon was 44.4 µM; with A549 NSCLC it was more than 100 µM; with HL-60(TB) leukemia, 58.5 µM; in the experiment with UO-31 renal it was 50.3 µM.

As for `COc1ccc(C)cc1-c1cc(Sc2ccccc2)c(-c2cc(C)ccc2OC)o1`, the TGI is more than 100 µM with LOX IMVI melanoma; more than 31.6 µM with A498 renal; more than 31.6 µM in the experiment with SN12C renal; more than 31.6 µM in the experiment on SK-MEL-28 melanoma; more than 31.6 µM in the experiment with IGROV1 ovarian; more than 31.6 µM in the experiment with HCT-116 colon. Moreover, the TGI in the experiment with COLO 205 colon, with A549 NSCLC, in the experiment on HL-60(TB) leukemia and with UO-31 renal was more than 31.6 µM throughout.

Regarding `CCC(=C/[C@H](C)C/C=C/C(C)=C/[C@@H](C)C(=O)[C@@H](C)[C@H](O)[C@@H](C)CC)/C=C/[C@H]1OC(=O)C=C[C@@H]1C`, the GI50 is less than 10 nM in the experiment on LOX IMVI melanoma; less than 10 nM in the experiment on A498 renal; less than 10 nM in the experiment on SN12C renal; less than 0.01 µM in the experiment on SK-MEL-28 melanoma; less than 10 nM in the experiment with IGROV1 ovarian; less than 10 nM with HCT-116 colon. The GI50 in the experiment with COLO 205 colon, in the experiment with A549 NSCLC, in the experiment with HL-60(TB) leukemia and with UO-31 renal was less than 10 nM throughout. For the same compound, the TGI was 1.23 µM in the experiment on LOX IMVI melanoma; less than 0.01 µM with A498 renal; 1.27 µM in the experiment with SN12C renal; 1.26 µM in the experiment with SK-MEL-28 melanoma; 7.67 µM with IGROV1 ovarian; 0.0106 µM with HCT-116 colon. Besides, the figures for the TGI with COLO 205 colon, in the experiment with HL-60(TB) leukemia and with UO-31 renal were 0.345 µM, 1.77 µM and 1.87 µM, respectively.

For the compound `O=C(Nc1ccc(Oc2ccc(Nc3nc4ccccc4s3)cc2)cc1)Nc1ccc(Cl)c(C(F)(F)F)c1`, the GI50 was 1420 nM in the experiment on LOX IMVI melanoma; 1460 nM in the experiment on A498 renal; 1420 nM with SN12C renal; 1.57 µM in the experiment with SK-MEL-28 melanoma; 1670 nM in the experiment with IGROV1 ovarian; 1310 nM in the experiment on HCT-116 colon. For the same compound, the GI50 in the experiment with COLO 205 colon is 1640 nM; in the experiment on A549 NSCLC, 1970 nM; with HL-60(TB) leukemia it was 2210 nM; in the experiment on UO-31 renal, 1220 nM. Further, the TGI in the experiment with LOX IMVI melanoma amounted to 2.76 µM; in the experiment with A498 renal, 3.16 µM; in the experiment with SN12C renal it was 3.03 µM; in the experiment on SK-MEL-28 melanoma it was 3.2 µM; in the experiment on IGROV1 ovarian, 3.62 µM; with HCT-116 colon it was 2.61 µM. Moreover, the TGI in the experiment on COLO 205 colon was found to be 3.25 µM; in the experiment on A549 NSCLC, 6.26 µM; in the experiment on HL-60(TB) leukemia, 5.59 µM; in the experiment on UO-31 renal, 2.82 µM.

For the compound `O=S(=O)(N/N=C/c1cccc(/C=N/NS(=O)(=O)c2ccccc2)c1)c1ccccc1`, the TGI in the experiment on LOX IMVI melanoma, in the experiment with A498 renal, in the experiment with SN12C renal, in the experiment with SK-MEL-28 melanoma, with IGROV1 ovarian and with HCT-116 colon was more than 100 µM each time. Further, the TGI with COLO 205 colon, in the experiment on A549 NSCLC, in the experiment on HL-60(TB) leukemia and in the experiment with UO-31 renal was more than 100 µM in each case.

In the case of `O=C(CCCSc1nc(-c2ccccc2)cc(-c2ccccc2)n1)NO`, the GI50 in the experiment with LOX IMVI melanoma is 2260 nM; in the experiment on A498 renal, 1120 nM; in the experiment with SN12C renal it was 1940 nM; in the experiment on SK-MEL-28 melanoma, 1.95 µM; with IGROV1 ovarian, 1500 nM; in the experiment on HCT-116 colon, 657 nM. Also, the GI50 was 1860 nM with COLO 205 colon, 2630 nM with A549 NSCLC, 2480 nM in the experiment on HL-60(TB) leukemia and 274 nM in the experiment on UO-31 renal. Besides, the TGI worked out at 5.47 µM with LOX IMVI melanoma; 3.1 µM in the experiment with A498 renal; 9.1 µM in the experiment on SN12C renal; 7.2 µM in the experiment with SK-MEL-28 melanoma; 9.13 µM in the experiment on IGROV1 ovarian; 11.7 µM in the experiment on HCT-116 colon. Besides, the TGI with COLO 205 colon is 5.1 µM; in the experiment on A549 NSCLC, 10.1 µM; with HL-60(TB) leukemia it was 6.39 µM; with UO-31 renal, 1.27 µM.

Regarding `Cc1cc(I)cc(CN(CCCN(C)C)C(C)C)c1O`, the GI50 is 15000 nM with LOX IMVI melanoma; 21000 nM in the experiment on A498 renal; 37800 nM in the experiment with SN12C renal; 16.5 µM in the experiment with SK-MEL-28 melanoma; 15900 nM in the experiment with IGROV1 ovarian; 12600 nM in the experiment on HCT-116 colon. Moreover, the GI50 in the experiment on COLO 205 colon was 14700 nM; in the experiment with A549 NSCLC, 18200 nM; in the experiment on HL-60(TB) leukemia it was 18200 nM; with UO-31 renal, 14500 nM. In addition, the TGI is 28.6 µM in the experiment on LOX IMVI melanoma; 37.8 µM with A498 renal; more than 100 µM with SN12C renal; 34.3 µM in the experiment on SK-MEL-28 melanoma; 31.7 µM with IGROV1 ovarian; 25.1 µM in the experiment with HCT-116 colon. For the same compound, the TGI in the experiment on COLO 205 colon stood at 27.8 µM; with A549 NSCLC, 39.6 µM; with HL-60(TB) leukemia, 36 µM; with UO-31 renal, 32.6 µM.
